Entries after “also recorded” stand apart in the source; their conditions may differ. Blank lines part the entries; values can stand above or below the molecule they belong to.
Key:
Aqueous solubility = format: physicochemical
[1] = Amino acid mimetic reactivity, LC/MS: pyrrole (pyrrole-lysine mimic); details: 100 mM, PBS pH 7, 37° C., 24 h
Protocol: (§1) Cyclic imine 1 was incubated with 100 mM compounds in PBS (pH 7) at 37° C. for 24 hours and then analyzed by LC/MS. (A) Compounds include β-mercaptoethanol, imidazole, isopropanol, n-butylamine, propionic acid, 3-methyl indole, and N-ethyl pyrrole (pyrrole-lysine). UV LC/MS traces for (B) β-mercaptoethanol, (C) 3-methyl indole, and (D) N-ethyl pyrrole. LR-ESI-MS: imine-thiol product m/z calc. for [M+H]^+ 231.1; found: 231.2. Imine-indole product m/z calc. for [M+H]^+: 284.2; found: 284.2. Imine-pyrrole product m/z calc. for |M+H|^+: 248.2; found: 248.2.
(§2) To assess the selectivity to other amino acids, we tested compounds mimicking amino acid side chain functional groups, including β-mercaptoethanol (cysteine), imidazole (histidine), isopropanol (serine/threonine), n-butylamine (lysine), propionic acid (aspartic acid/glutamic acid), 3-methyl indole (tryptophan), and N-ethyl pyrrole (pyrrole-lysine). […] Conjugation to thiols was expected based on previous reports (Minakawa et al. J. Org. Chem. 2008, 73(21), 8669-8672; Cavaca et al. Mol. 2022, 27(5), 1673).

[2] = Effect of thiols on tyrosine labeling with imine 1; details: 5 mM imine, 100 mM Tyr, 5 mM cysteine, vs control
Protocol: Cyclic imine 1 (5 mM) was incubated with 100 mM acetyl tyrosine methyl amide and 5 mM […] (in the presence of 5 mM TCEP). Reaction yield was quantified based on UV integrations of Mannich product at 4 h, 9 h, 17 h, 24 h, and 32 h. Imine consumption rate was quantified based on the UV integration of Mannich product at 4 h, 9 h, 17 h, 24 h, and 32 h.
Thiol addition to the imine is reversible, yet this reaction may limit the desired reactivity of imines to tyrosines in cellular contexts where glutathione concentrations can be 1-10 mM (Meister et al. J. Biol. Chem. 1988, 263(33), 17205-17208; Forman et al. Mol. Aspects Med. 2009, 30(1-2), 1). To evaluate this reversibility, the pre-formed thioaminal product of 1 with N-acetyl-cysteine methyl amide was treated with either glutathione (1 M) or Ac-Tyr-NHMe (100 mM). […] To evaluate potential effects of cellular thiols on tyrosine labeling rate, the cyclic imine-Tyr reaction (at 5 mM and 100 mM, respectively) was evaluated over time in the presence of cysteine (5 mM) (FIG. 9).

[3] = target: T1, recombinant CBX8 chromodomain (ChD) (Homo sapiens, UniProt Q9HC52); test: Labeling of CBX8 chromodomain with imine 1 (mass spectrometry); format: binding; details: 50 mM imine, 10 μM CBX8 ChD, PBS pH 7, 0.02% Tween 20, room temperature overnight
T1 construct: expected mass of CBX8 ChD 8792 Da
T1 sequence (Q9HC52 8-69 limits assumed): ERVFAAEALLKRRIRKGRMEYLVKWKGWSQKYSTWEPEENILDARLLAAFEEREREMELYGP
Protocol: (§3) To confirm reactivity and selectivity with a peptide context, imine 1 (50 mM) was incubated with the tyrosine-containing 8-mer peptide angiotensin II ([…]) (10 mM) (FIG. 10). The combined yield of mono-labeled and di-labeled angiotensin II was ~45% as quantified by LC/MS. Cyclic imine 1 (50 mM) was also incubated with a small protein (recombinant CBX8 chromodomain (ChD), which contains multiple tyrosines and tryptophans; 10 μM in PBS buffer (pH=7; 0.02% Tween 20)) at room temperature overnight. With overnight incubation, two to three additions of the imine were observed by mass spectrometry.

[4] = Reaction of imine 1 with indole-3-butyrate (tryptophan mimic)
Protocol: (§4) Reactions were conducted under pseudo first order conditions with an excess of one reactant. The reduction in the concentration of the limiting reactant A was measured at various time points by HPLC analysis. Rates of imine 1 with N-Ac-Tyr-NMe, indole-3-butyric acid, and 1H-pyrrole-1-propionic acid and of imine 2 with N-Ac-Tyr-NMe were measured.
(§5) Reaction of imine 1 (5 mM) with (A) N-Ac-Tyr-NHMe (100 mM) or (B) indole-3-butyrate (100 mM) at indicated time points.
(§6) Reaction of (A) imine 1 (5 mM) with N-Ac-Tyr-NHMe (100 mM) at 37° C. or (B) at room temperature. (C) imine 2 (5 mM) with N-Ac-Tyr-NHMe (100 mM) at 37° C. (D) imine 1 (5 mM) with indole-3-butyrate (100 mM) (E) imine 1 (10 mM) with 1 mM 1H-pyrrole-1-propionate (F) iminium 6 (5 mM) with N-Ac-Tyr-NHMe (100 mM) at 37° C. at pH 7 (G) iminium 6 (5 mM) with N-Ac-Tyr-NHMe (100 mM) at 37° C. at pH 3 at indicated time points.

[5] = Reaction of cyclic imines with N-acetyl-L-tyrosine methylamide (HPLC/LC-MS); details: for reaction half-life (t1/2): 5 mM imine, 100 mM Ac-Tyr-NHMe; for reaction half-life (t1/2) / reactivity to tyrosine: PBS pH 7, 37° C.; for second-order rate constant: pseudo-first order conditions; for reactivity to tyrosine: in words, Ac-Tyr-NHMe
Protocol: The reaction was monitored using liquid chromatography/mass spectrometry (LC/MS).
as §4, §5, §6
Several cyclic imines (5 mM) were incubated with a simple tyrosine analog N-acetyl-L-tyrosine methylamide (Ac-Tyr-NHMe) in PBS pH 7 at 37° C. (FIGS. 2-3). The reactivity was quantitated by UV integration on HPLC with liquid chromatography/mass spectrometry (LC/MS) confirmation of reaction product identity (FIG. 4). Under these pseudo-first order reaction conditions, reaction half-lives and second-order rate constants were determined.

[6] = Reaction of imine 1 with 1H-pyrrole-1-propionate (pyrrole-Lys mimic)
Protocol: as §4, §6
We also tested 1 with N-ethyl pyrrole as a mimic of pyrrolated lysine, a lesser-known post-translational modification (Miyashita et al. Sci. Rep. 2014, 4, 5343; Chikazawa et al. J. Biol. Chem. 2020, 295(22), 7697-7709). […] Previous work with N-pyrrolyl alanine derivatives has shown fast and selective Pictet-Spengler reactions with aldehyde-containing biomolecules (Pomplun et al. Angew. Chemie Int. Ed. 2019, 58(11), 3542-3547).^50 Under conditions of 10 mM cyclic imine 1 with 1 mM 1H-pyrrole-1-propionate (as a soluble pyrrole-Lys mimic), we determined a second order rate constant of 5.9×10^−2 M^−1 s^−1 (FIGS. 3 and 5).

[7] = Amino acid mimetic reactivity, LC/MS: thiol (cysteine mimic); details: 100 mM, PBS pH 7, 37° C., 24 h
Protocol: as §1, §2

[8] = Stability of cyclic imines in aqueous media (LC/MS); format: physicochemical; details: 96-hours incubation in PBS, 0.1M HCl, 0.1M NaOH
Protocol: To validate the stability of cyclic imines as covalent warheads, imines 1-4 were evaluated by LC/MS after 96-hours incubation in PBS, 0.1M HCl, and 0.1M NaOH (Table 1).

angiotensin II = test: Labeling of angiotensin II with imine 1 (LC/MS); details: 50 mM imine 1, 10 mM angiotensin II, 16 hours
Protocol: UV trace of reaction mixture of compound 1 (cyclic imine 1) with angiotensin II. […] (Mono cyclic imine-angiotensin II conjugate peak at 2 min): calc. [M+H]^+: 1199.2, found [M+H]^+: 1199.3, [M+2H]^2+: 600.3, [M+3H]^3+: 400.6. (Di-cyclic imine-angiotensin II conjugate peak at 2.1 min): calc. [M+H]^+: 1351.2, found [M+H]^+: 1351.8, [M+2H]^2+: 676.4, [M+3H]^3+: 451.0. (Unmodified angiotensin II (8-mer) peak at 2.2 min): m/z calc. [M+H]^+: 1047.2, found [M+H]^+: 1047.2, [M+2H]^2+: 524., [M+3H]^3+: 350.
as §3

[9] = Amino acid mimetic reactivity, LC/MS: indole (tryptophan mimic); details: 100 mM, PBS pH 7, 37° C., 24 h
Protocol: as §1, §2

[10] = Hydrolysis of aromatic ester imine in water / PBS; format: physicochemical

SMILES: O=C1C=NC2CCCCC2O1 (stereo not shown) [Compound 2]
reaction half-life (t1/2) [5]: 0.667 h
second-order rate constant ([5]; 37° C.): 0.0029 M⁻¹ s⁻¹
increase in rate constant relative to 1 ([5]; relative to imine 1, Ac-Tyr-NHMe): ~ 10 fold
stability (in words) [8]: hydrolyzed under basic conditions

SMILES: C#CCn1c(=O)cnc2ccccc21 [Compound 5]
reactivity to tyrosine [5]: unreactive

SMILES: C1=NCCc2ccccc21 [Compound 9]
reactivity to tyrosine [5]: limited

SMILES: CC1=NCCC1 [Compound 10]
reactivity to tyrosine [5]: no

Continued, in another order:

aqueous solubility (Aqueous solubility): poor aqueous solubility
SMILES: Cc1c[nH]c2ccccc12 [3-methyl indole]

number of additions of the imine [3]: two to three
stability (in words) [8]: stable under all conditions
SMILES: O=C1C=NC2CCCCC2N1 (stereo not shown) [Compound 1]
conjugate formation with N-ethyl pyrrole [1]: Stable conjugates
effect of cysteine on tyrosine-imine reaction rate [2]: slightly slowed the reaction rate
fold lower rate constant than to tyrosine ([4]; indole-3-butyrate vs tyrosine): 2 fold
second order rate constant (k2) ([4]; indole-3-butyrate, 37° C.): 0.00011 M⁻¹ s⁻¹
reaction half-life (t1/2) [5]: 8 ± 0.3 h
second-order rate constant ([5]; 37° C.): 0.00024 M⁻¹ s⁻¹
second-order rate constant ([5]; R.T.): 0.00015 M⁻¹ s⁻¹
second order rate constant ([6]; 10 mM imine 1, 1 mM 1H-pyrrole-1-propionate): 0.059 M⁻¹ s⁻¹
increase in rate constant relative to Tyr ([6]; 1H-pyrrole-1-propionate vs Tyr): ~ 200 fold
conjugate formation with β-mercaptoethanol [7]: Stable conjugates
combined yield of mono-labeled and di-labeled angiotensin II (angiotensin II): ~ 45%
conjugate formation with 3-methyl indole [9]: Stable conjugates; also recorded: multiple products

degraded at 1 h ([10]; PBS, pH 7, within an hour): 70%
stability in water ([10]; water): stable in water
SMILES: O=c1cnc2ccccc2o1 [Compound 3]
reactivity to tyrosine [5]: did increase the rate of Mannich addition; also recorded: low intrinsic reactivity
stability (in words) [8]: hydrolyzed under basic conditions; also recorded: unstable in PBS

stability (in words) [8]: stable under all conditions
SMILES: Oc1cnc2ccccc2n1 [Compound 4]
reactivity to tyrosine [5]: unreactive
